# Biological target: T1, human TRPA1 (Homo sapiens, UniProt O75762)
# T1 construct: expressed in transfected cells
# Experiment: Cell-based functional intracellular calcium ([Ca2+]i) assay, Fluo-4/Fluo-8, FlexStation, challenge with reference TRPA1 agonist (FFA, AITC or 4-HNE)
# Conditions: not given
# Protocol: A stable HEK293 cell line that expresses human TRPA1 in an inducible manner was employed in this assay. […] The expression of TRPA1 was induced by including 1 μg/ml doxycycline in the culture medium. For the induced cells, ruthenium red (5 μM) was also added to minimize the constitutive TRPA1 channel activity and cells were used 14-18 hrs after induction. To measure [Ca^2+]i changes, cells were seeded in wells of 96-well plates at ˜100,000 cells/well and grown for 14-18 hrs to reach confluency. To prevent cell loss from subsequent washing, the wells were treated with 20 μg/ml polyornithine (MW>30,000, Sigma, St Louis, Mo.) for >15 min and rinsed once with Hank's balanced salt solution without Mg^2+ and Ca^2+. […] In some experiments, Fluo-8-AM was used instead of Fluo-4-AM as the calcium-sensitive fluorescent probe. Probenecid (2 mM) was included in all solutions to prevent the leakage of Fluo-4 or Fluo-8 from the cells. At the end of the incubation, cells were washed three times with ECS and placed in 80 μL of the same solution. Fluorescence changes were measured using a fluid handling integrated fluorescence plate reader, FlexStation (Molecular Devices, Sunnyvale, Calif.). Stock solutions of test compounds were initially solubilized in 100% DMSO and then serially diluted to achieve the desired final concentration. […] Drugs were diluted into ECS at 2× or 3× the desired final concentrations and delivered to the sample plate by an integrated robotic 8-channel pipettor at preprogrammed time points. […] Experiments were performed at 20-25° C. For certain experiments, 0.1% BSA was included with the cells and test compounds.
# The kinetic data obtained at each test concentration of drug represents a series of fluorescent intensities as a function of time.
# Using a sequential addition protocol, test compounds were initially applied to the cells loaded with Fluo-4 or Fluo-8 and fluorescence changes in each well monitored for 2.5 min. The plate was read again in a kinetic mode after a 15-30 min incubation with the test compounds after obtaining baseline values (about 30 s) and subsequent addition of challenge with a reference TRPA1 agonist. Reference TRPA1 agonists in testing each compound included at least one of flufenamic acid (FFA), allyl isothiocyanate (AITC) and 4-hydroxynonenal (4-HNE).
# Antagonist activity can be expressed in terms of IC50 with respect to TRPA1 and agonist activity can be expressed in terms of EC50 with respect to TRPA1.
# T1 sequence (O75762 whole entry): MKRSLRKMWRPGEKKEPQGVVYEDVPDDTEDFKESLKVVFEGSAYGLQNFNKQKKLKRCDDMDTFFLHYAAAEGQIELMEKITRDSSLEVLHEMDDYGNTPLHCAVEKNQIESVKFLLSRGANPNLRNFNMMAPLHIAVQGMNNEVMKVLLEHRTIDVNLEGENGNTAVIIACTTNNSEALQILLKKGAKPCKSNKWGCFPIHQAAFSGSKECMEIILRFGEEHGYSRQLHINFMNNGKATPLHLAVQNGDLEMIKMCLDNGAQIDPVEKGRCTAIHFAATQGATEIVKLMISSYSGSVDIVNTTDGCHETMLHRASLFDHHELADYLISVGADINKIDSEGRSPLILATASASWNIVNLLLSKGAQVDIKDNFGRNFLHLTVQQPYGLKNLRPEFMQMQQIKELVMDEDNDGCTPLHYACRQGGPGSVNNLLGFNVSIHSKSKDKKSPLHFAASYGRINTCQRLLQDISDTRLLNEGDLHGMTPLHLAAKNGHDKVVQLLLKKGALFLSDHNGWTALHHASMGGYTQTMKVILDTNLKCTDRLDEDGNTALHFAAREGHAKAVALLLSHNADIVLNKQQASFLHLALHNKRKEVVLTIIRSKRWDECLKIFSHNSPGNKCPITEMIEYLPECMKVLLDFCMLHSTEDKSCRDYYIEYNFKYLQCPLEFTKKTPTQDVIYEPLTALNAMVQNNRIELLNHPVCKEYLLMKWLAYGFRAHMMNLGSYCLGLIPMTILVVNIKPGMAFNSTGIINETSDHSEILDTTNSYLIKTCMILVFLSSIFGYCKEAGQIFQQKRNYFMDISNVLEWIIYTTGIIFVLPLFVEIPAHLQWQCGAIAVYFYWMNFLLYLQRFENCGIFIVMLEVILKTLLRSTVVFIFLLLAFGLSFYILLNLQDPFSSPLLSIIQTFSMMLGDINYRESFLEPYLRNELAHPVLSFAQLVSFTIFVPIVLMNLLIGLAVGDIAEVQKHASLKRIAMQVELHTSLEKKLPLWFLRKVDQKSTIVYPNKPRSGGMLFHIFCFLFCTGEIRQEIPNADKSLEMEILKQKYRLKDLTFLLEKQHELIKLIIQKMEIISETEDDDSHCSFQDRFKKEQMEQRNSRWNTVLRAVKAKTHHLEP
row,Structure (SMILES),IC50 [µM]
1,O=C(c1cc(-c2ccncc2)n(-c2ccc(C(F)(F)F)c(F)c2)n1)N1CCC2(CC1)OCCO2 [Compound 163],5 to 25
2,O=C(c1cc(-c2ccncc2)n(-c2ccc(C(F)(F)F)c(F)c2)n1)N1CCC(N2C(=O)Cc3ccccc32)CC1 [Compound 98],5 to 25
3,CC1COC2(CCN(C(=O)c3cc(-c4ccncc4)n(-c4ccc(C(F)(F)F)c(F)c4)n3)CC2)O1 (stereo not drawn) [Compound 114],> 25
4,O=C(c1cc(-c2ccncc2)n(-c2cnccn2)n1)N1CCC2(CC1)OCCO2 [Compound 169],> 25
5,O=C(c1cc(-c2cccnc2)n(-c2ccc(C(F)(F)F)c(F)c2)n1)N1C2CCC1CC1(C2)C(=O)NCN1c1ccc(F)cc1 (stereo not drawn) [Compound 193],0.001 to 5
6,CC1COC2(CCN(C(=O)c3cc(-c4ccncc4)n(-c4cnccn4)n3)CC2)O1 (stereo not drawn) [Compound 135],> 25
7,O=C(c1cc(-c2ccncc2)n(-c2cc(C(F)(F)F)cc(C(F)(F)F)c2)n1)N1CCC2(CC1)OCCO2 [Compound 160],> 25
8,CC1COC2(CCN(C(=O)c3cc(-c4ccncc4)n(-c4ccc(F)c(F)c4)n3)CC2)O1 (stereo not drawn) [Compound 93],> 25

# Same assay, conditions: HEK293 cells expressing human TRPA1; IC50 class after addition of reference TRPA1 agonist (FFA, AITC or 4-HNE); read-out: human TRPA1-HEK Activity
row,Structure (SMILES),IC50 [µM]
1,O=C(c1cc(-c2cccnc2)n(-c2ccc(C(F)(F)F)cc2C(F)(F)F)n1)N1CCC(n2c(=O)[nH]c3ccc(F)c(F)c32)CC1 [Compound 236],0.001 to 5
2,O=C(c1cc(-c2cncc(F)c2)n(-c2ccc(C(F)(F)F)c(F)c2)n1)N1CCC2(CC1)C(=O)NCN2c1ccc(F)cc1 [Compound 318],0.001 to 5
3,Cc1nc(C(F)(F)F)ccc1-c1cc(C(=O)N2CCC3(CC2)C(=O)NCN3c2ccc(F)cc2)nn1-c1ccc(C(F)(F)F)c(F)c1 [Compound 263],> 25
4,N#Cc1ccc(-n2nc(C(=O)N3CCC(n4c(=O)[nH]c5ccc(F)c(F)c54)CC3)cc2-c2cccnc2)cc1 [Compound 212],0.001 to 5
5,O=C(c1cc(-c2ccncc2)n(-c2ccc(C(F)(F)F)c(F)c2)n1)N1CCC2(CC1)C(=O)NCN2c1ccc(OC(F)(F)F)cc1 [Compound 179],> 25
6,O=C(c1cc(-c2ccncc2)n(-c2ccccc2)n1)N1CC2(CCCC2)C1 [Compound 6],> 25
7,O=C(Nc1ccc2c(c1)OC(F)(F)O2)c1cc(-c2ccncc2)n(-c2ccc(C(F)(F)F)cc2)n1 [Compound 66],> 25
8,O=C(c1cc(-c2ccncc2)n(-c2cc(C(F)(F)F)cc(C(F)(F)F)c2)n1)N1CCC(n2c(=O)[nH]c3ccccc32)CC1 [Compound 159],5 to 25
9,Cc1cc(OC(F)(F)F)ccc1-n1nc(C(=O)N2CCC3(CC2)C(=O)NCN3c2ccc(F)cc2)cc1-c1cccnc1 [Compound 226],0.001 to 5
10,O=C(c1cc(-c2cnccn2)n(-c2ccc(F)c(C(F)(F)F)c2)n1)N1CCC2(CC1)C(=O)NCN2c1ccc(F)cc1 [Compound 306],0.001 to 5
11,O=C(c1cc(-c2ccncc2)n(-c2ccccc2)n1)N1CCC2(CC1)CC(F)(F)CO2 [Compound 16],5 to 25
12,Cc1cc(N2CNC(=O)C23CCN(C(=O)c2cc(-c4cccnc4)n(-c4ccc(F)c(C(F)(F)F)c4)n2)CC3)cc(C)c1F [Compound 242],0.001 to 5
13,CC1CC(n2c(=S)[nH]c3ccc(F)c(F)c32)CCN1C(=O)c1cc(-c2cccnc2)n(-c2ccc(F)c(C(F)(F)F)c2)n1 (stereo not drawn) [Compound 294],0.001 to 5
14,O=C(c1cc(-c2ccncc2)n(-c2cc(C(F)(F)F)cc(C(F)(F)F)c2)n1)N1CCC2(CC1)C(=O)NCN2c1ccccc1 [Compound 158],5 to 25
15,Cc1cc(-n2nc(C(=O)N3CCC(n4c(=O)[nH]c5ccc(F)c(F)c54)CC3)cc2-c2cccnc2)cc(C(F)(F)F)c1F [Compound 286],0.001 to 5
16,CC1CC(n2c(=O)[nH]c3ccc(F)c(F)c32)CC(C)N1C(=O)c1cc(-c2cccnc2)n(-c2ccc(C(F)(F)F)c(F)c2)n1 (stereo not drawn) [Compound 194],5 to 25
17,O=C(c1cc(-c2ccncc2)n(-c2cc(F)c(F)c(F)c2)n1)N1CCC(n2c(=O)[nH]c3ccccc32)CC1 [Compound 141],5 to 25
18,Cc1c(F)ccc2[nH]c(=O)n(C3CCN(C(=O)c4cc(-c5cccnc5)n(-c5cc(F)c(F)c(F)c5)n4)CC3)c12 [Compound 202],0.001 to 5
19,O=C1Nc2ccccc2C1N1CCN(C(=O)c2cc(-c3cccnc3)n(-c3ccc(C(F)(F)F)c(F)c3)n2)CC1 (stereo not drawn) [Compound 258],> 25
20,O=C(c1cc(-c2cccnc2)n(-c2ccc(C(F)(F)F)c(F)c2)n1)N1CCC2(CC1)C(=O)NCN2c1ccc(F)c(C(F)(F)F)c1 [Compound 187],0.001 to 5
21,O=C(c1cc(-c2cncc(F)c2)n(-c2ccc(C(F)(F)F)c(F)c2)n1)N1CCC(n2c(=O)[nH]c3ccc(F)c(F)c32)CC1 [Compound 319],0.001 to 5
22,Cn1c(=O)n(C2CCN(C(=O)c3cc(-c4ccncc4)n(-c4ccc(F)c(F)c4)n3)CC2)c2ccccc21 [Compound 83],> 25
23,O=C(Nc1ccc2c(c1)OC(F)(F)O2)c1cc(-c2ccncc2)n(-c2ccc(F)c(F)c2)n1 [Compound 88],5 to 25

row,Structure (SMILES),IC50 [µM]
1,O=C(c1cc(-c2cccnc2)n(-c2ccc(C(F)(F)F)c(F)c2)n1)N1CCC(n2c(=S)[nH]c3ccc(F)c(F)c32)CC1 [Compound 182],0.001 to 5
2,O=C1Nc2cc(F)c(F)cc2C2(CCN(C(=O)c3cc(-c4cccnc4)n(-c4ccc(F)c(C(F)(F)F)c4)n3)CC2)O1 [Compound 273],0.001 to 5
3,N#Cc1ccc(-n2nc(C(=O)N3CCC4(CC3)C(=O)NCN4c3ccc(F)cc3)cc2-c2cccnc2)c(C(F)(F)F)c1 [Compound 324],0.001 to 5
4,O=C(c1cc(-c2ccncc2)n(-c2cc(F)c(F)c(F)c2)n1)N1CCC(n2c(=O)[nH]c3cc(C(F)(F)F)ccc32)CC1 [Compound 176],5 to 25
5,O=C(c1nn(-c2cc(F)c(F)c(F)c2)c(-c2cccnc2)c1Br)N1CCC(n2c(=O)[nH]c3ccc(F)c(F)c32)CC1 [Compound 211],0.001 to 5
6,O=C(c1cc(-c2ccncc2)n(-c2cccc(C(F)(F)F)c2)n1)N1CCC(n2c(=O)[nH]c3ccccc32)CC1 [Compound 147],> 25
7,O=C1Nc2ccc(F)cc2C2(CCN(C(=O)c3cc(-c4cccnc4)n(-c4cc(F)c(F)c(F)c4)n3)CC2)O1 [Compound 231],0.001 to 5
8,O=C(c1cc(-c2ccncc2)n(-c2ccc(C(F)(F)F)c(F)c2)n1)N1CCC2(CC1)SCCS2 [Compound 107],> 25
9,O=C(c1cc(-c2cccnc2)n(-c2ccc(C(F)(F)F)c(F)c2)n1)N1CCC2(CC1)C(=O)NCN2c1ccc(I)cc1 [Compound 183],> 25
10,O=C(c1cc(-c2cccnc2)n(-c2ccc(C(F)(F)F)c(F)c2)n1)N1CCC(n2c(=O)[nH]c3ncccc32)CC1 [Compound 260],0.001 to 5
11,O=C1OC2(CCN(C(=O)c3cc(-c4ccncc4)n(-c4ccc(C(F)(F)F)cc4)n3)CC2)c2ccccc21 [Compound 58],> 25
12,N#Cc1cccc2[nH]c(=O)n(C3CCN(C(=O)c4cc(-c5cccnc5)n(-c5cc(F)c(F)c(F)c5)n4)CC3)c12 [Compound 232],0.001 to 5
13,O=C(Nc1ccc2[nH]c(=O)oc(=O)c2c1)c1cc(-c2ccncc2)n(-c2ccccc2)n1 [Compound 38],5 to 25
14,N#CC1(c2ccccc2)CCN(C(=O)c2cc(-c3ccncc3)n(-c3ccccc3)n2)CC1 [Compound 28],> 25
15,O=C(c1nn(-c2ccc(F)c(C(F)(F)F)c2)c2c1CCc1cccnc1-2)N1CCC2(CC1)C(=O)NCN2c1ccc(F)cc1 [Compound 315],0.001 to 5
16,O=C(c1cc(-c2cccnc2)n(-c2cc(F)c(F)c(F)c2)n1)N1CCC2(CC1)C(=O)NCN2c1ccc(I)cc1 [Compound 200],0.001 to 5
17,O=C(c1cc(-c2ccncc2)n(-c2ccc(C(F)(F)F)cc2)n1)N1CCC2(CC1)OCc1ccccc12 [Compound 57],> 25
18,O=C(c1nn(-c2ccc(F)c(C(F)(F)F)c2)c2c1CCc1cccnc1-2)N1CCC(n2c(=O)[nH]c3ccc(F)c(F)c32)CC1 [Compound 316],0.001 to 5
19,O=C(c1cc(-c2cccnc2)n(-c2ccc(F)c(C(F)(F)F)c2)n1)N1CCC(N2Cc3c(F)cccc3NC2=O)CC1 [Compound 289],0.001 to 5
20,O=C(c1cc(-c2cccnc2)n(-c2ccc(C(F)(F)F)c(F)c2)n1)N1CCC2(CC1)C(=O)NCN2c1ccc(F)c(Cl)c1 [Compound 189],0.001 to 5
21,O=C(c1cc(-c2cccnc2)n(-c2ccc(F)c(C(F)(F)F)c2)n1)N1CCC(N2Cc3ccc(F)cc3NC2=O)CC1 [Compound 290],0.001 to 5
22,N#Cc1cc2[nH]c(=O)n(C3CCN(C(=O)c4cc(-c5cccnc5)n(-c5cc(F)c(F)c(F)c5)n4)CC3)c2cc1F [Compound 235],0.001 to 5
23,Cc1c(C(=O)N2CCC3(CC2)C(=O)NCN3c2ccc(F)cc2)nn(-c2ccc(C(F)(F)F)c(F)c2)c1-c1cccnc1 [Compound 265],0.001 to 5
